Assay [1] deals with T1, mouse T1R1+3 (Mus musculus, UniProt Q925D8+Q99PG6).
T1 construct: expressed in transfected cells; host or cells: HEK-293 (PEAKrapid) cells co-expressing promiscuous G proteins
T1 sequence (Q99PG6 20-842 L120P/N244D/D281A/N309Y/P311T/S314P/H418Y): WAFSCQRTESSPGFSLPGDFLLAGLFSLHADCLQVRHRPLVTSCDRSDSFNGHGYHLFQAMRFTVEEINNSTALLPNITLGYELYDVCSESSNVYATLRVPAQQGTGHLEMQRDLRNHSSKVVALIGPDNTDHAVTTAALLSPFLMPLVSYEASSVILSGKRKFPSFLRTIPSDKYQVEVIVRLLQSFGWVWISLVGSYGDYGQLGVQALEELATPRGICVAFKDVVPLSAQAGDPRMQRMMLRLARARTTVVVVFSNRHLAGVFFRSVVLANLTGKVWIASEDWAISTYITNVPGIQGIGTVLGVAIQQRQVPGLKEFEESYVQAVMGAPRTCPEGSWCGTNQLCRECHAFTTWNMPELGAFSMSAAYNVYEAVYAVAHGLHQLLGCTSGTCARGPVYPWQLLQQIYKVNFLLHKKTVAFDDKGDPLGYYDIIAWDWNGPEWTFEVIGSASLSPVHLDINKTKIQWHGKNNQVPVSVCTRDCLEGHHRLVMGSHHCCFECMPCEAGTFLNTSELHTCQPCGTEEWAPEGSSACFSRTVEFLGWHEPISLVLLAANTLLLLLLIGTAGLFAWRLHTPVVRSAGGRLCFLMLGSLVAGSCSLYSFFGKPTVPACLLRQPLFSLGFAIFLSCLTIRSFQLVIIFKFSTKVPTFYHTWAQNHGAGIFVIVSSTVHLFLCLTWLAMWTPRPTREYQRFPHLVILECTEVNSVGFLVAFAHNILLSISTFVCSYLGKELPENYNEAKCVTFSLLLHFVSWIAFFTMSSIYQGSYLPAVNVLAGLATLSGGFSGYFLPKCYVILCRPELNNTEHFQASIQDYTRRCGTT
T1 sequence (Q925D8 21-858): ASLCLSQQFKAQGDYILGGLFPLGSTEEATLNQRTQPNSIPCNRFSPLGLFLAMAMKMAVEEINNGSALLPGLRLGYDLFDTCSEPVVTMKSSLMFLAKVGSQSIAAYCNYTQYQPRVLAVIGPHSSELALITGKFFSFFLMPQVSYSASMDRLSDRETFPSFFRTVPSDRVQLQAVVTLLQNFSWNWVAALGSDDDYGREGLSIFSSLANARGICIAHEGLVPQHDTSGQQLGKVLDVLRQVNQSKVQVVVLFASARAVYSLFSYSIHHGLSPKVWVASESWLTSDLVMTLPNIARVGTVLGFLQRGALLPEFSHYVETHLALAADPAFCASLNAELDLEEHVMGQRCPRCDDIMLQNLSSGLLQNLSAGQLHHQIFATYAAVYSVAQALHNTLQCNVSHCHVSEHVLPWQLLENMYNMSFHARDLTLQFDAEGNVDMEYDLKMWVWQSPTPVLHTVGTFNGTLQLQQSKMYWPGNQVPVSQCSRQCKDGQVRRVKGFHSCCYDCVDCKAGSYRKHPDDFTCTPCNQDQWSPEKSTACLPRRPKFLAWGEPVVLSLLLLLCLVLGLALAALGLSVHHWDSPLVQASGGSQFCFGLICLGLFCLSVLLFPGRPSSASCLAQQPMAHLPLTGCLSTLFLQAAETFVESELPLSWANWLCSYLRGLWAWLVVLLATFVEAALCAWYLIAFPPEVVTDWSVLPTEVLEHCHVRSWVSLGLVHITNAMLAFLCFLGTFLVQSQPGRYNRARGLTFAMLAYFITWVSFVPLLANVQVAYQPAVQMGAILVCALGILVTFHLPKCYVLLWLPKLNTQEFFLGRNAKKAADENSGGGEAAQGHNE
Description: Calcium imaging of HEK-293 cells co-expressing promiscuous G proteins and mouse T1R1+3. In kind it is cell-based. The following applies: for shift of T1R1+3 dose response in the presence of IMP: 2.5 mM IMP; for activation of T1R1+3: amino acids 50 mM. As for the experimental part:
(a): HEK-293 cells co-expressing promiscuous G proteins and heteromeric mouse T1R2+3 or T1R1+3 receptors were stimulated with L- and D-amino acids. […] (b)(c): Quantification of amino-acid responses for T1R2+3(b) and T1R1+3(c). […] Each column represents the mean±s.e.m. of at least ten independent determinations. […] All calcium measurements and quantifications were performed as described in the Methods and Nelson et al., Cell 106:381-390 (2001).
Mouse T1R1 and T1R3 were transfected alone or in combination and tested for stimulation by L-amino acids.
(§1) Cells were grown, maintained and transfected exactly as described earlier (Nelson et al., Cell, 106:381-390 (2001)). […] FURA-2 acetomethyl ester was used to measure intracellular calcium concentration ([Ca^2+]i), and assay conditions were identical to those previously described (Nelson et al., Cell, 106:381-390 (2001)). Responses were measured for 60 s and the fluorescence ratio at wavelengths of 340 and 380 nm (F340/F380) was used to measure [Ca^2+]i. For data analysis, response refers to the number of cells responding in a field of about 300 transfected cells. Cells were counted as responders if F340/F380 increased above 0.27 after addition of tastant. […] Dose-response functions were fitted using the logistical equation. Studies involving taster and non-taster alleles of T1R3 used constructs of complementary DNA coding for T1R3 from C57BL/6 and 129/Sv mice, respectively (Nelson et al., Cell, 106:381-390 (2001); Kitagawa et al., Biochem. Biophys. Res. Cummun., 283:236-242 (2001); Montmayeur et al., Nature Neurosci., 4:492-498 (2001); Max et al., Nature Genet., 28:58-63 (2001); Sainz et al., J. Neurochem., 77:896-903 (2001); Bachmanov et al., Chem. Senses, 26:925-933 (2001)).

Assay [2] concerns the target T2, receptors containing human T1R1 (UniProt Q7RTX1+Q925D8).
T2 sequence (Q7RTX1 21-841): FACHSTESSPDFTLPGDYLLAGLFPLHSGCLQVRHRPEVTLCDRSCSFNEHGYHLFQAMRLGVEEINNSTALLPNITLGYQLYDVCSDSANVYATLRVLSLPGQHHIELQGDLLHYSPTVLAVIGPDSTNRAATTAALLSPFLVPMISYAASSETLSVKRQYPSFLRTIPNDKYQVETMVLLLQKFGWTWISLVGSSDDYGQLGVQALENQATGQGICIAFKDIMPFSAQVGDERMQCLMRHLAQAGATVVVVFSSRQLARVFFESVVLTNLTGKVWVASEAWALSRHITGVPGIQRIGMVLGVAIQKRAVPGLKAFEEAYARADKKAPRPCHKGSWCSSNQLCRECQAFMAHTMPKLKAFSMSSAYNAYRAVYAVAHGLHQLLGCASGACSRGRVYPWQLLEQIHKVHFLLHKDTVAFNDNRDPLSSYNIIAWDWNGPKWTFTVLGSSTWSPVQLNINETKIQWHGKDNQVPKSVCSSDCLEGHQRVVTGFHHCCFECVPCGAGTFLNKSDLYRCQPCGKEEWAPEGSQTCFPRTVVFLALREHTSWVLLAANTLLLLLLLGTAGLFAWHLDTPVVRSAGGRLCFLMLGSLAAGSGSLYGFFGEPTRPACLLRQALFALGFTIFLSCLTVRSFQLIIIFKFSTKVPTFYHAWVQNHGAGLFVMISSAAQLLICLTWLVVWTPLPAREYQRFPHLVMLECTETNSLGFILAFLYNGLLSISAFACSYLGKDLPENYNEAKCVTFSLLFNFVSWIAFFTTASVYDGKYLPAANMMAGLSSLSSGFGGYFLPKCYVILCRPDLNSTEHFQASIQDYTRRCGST
T2 sequence (Q925D8 21-858): T1 sequence (Q925D8 21-858)
As for the experimental part: as §1

The nature of assay [3]: Behavioral thresholds for detection of sweet tastants in vivo.

On to `C[C@H](N)C(=O)O` [Ala, alanine], for which, in assay [1], the “shift of T1R1+3 dose response in the presence of IMP” value (shortened to “shift of T1R1+3 dose response”) is “at least one order of magnitude to the left” and the “activation of T1R1+3” value is recorded as “activating”.

On to `C[C@@H](N)C(=O)O` [D-Ala], for which the “activation of T1R1+3 by D-amino acid in the presence of IMP” value in assay [1] (amino acid 50 mM, IMP 2.5 mM) is recorded as “exception”.

As to `N[C@@H](CCC(=O)O)C(=O)O` [Glu, glutamate], the “shift of T1R1+3 dose response” value in assay [1] was “at least one order of magnitude to the left”. For the same compound, the “sensitivity of cells expressing human T1R1 relative to other amino acids” value in assay [2] was “more than an order of magnitude more sensitive”.

In the case of `NCC(=O)O` [Gly, glycine], the “activation of T1R1+3” value was “activates” in assay [1] and “activating” in assay [1] (listed as glycine).

Regarding `NC(CCP(=O)(O)O)C(=O)O` [L-AP4], in assay [1], the “potentiation of T1R1+3 response to the tastant by purine nucleotides” value is “greatly potentiated”.

Take `N[C@@H](CCC(=O)O)C(=O)[O-].[Na+]` [MSG, monosodium L-glutamate]: in assay [1], the “potentiation of T1R1+3 response to the tastant by purine nucleotides” value is “greatly potentiated”. In assay [2] (low concentration, FIG. 11c), the “activation of receptors containing human T1R1” value is given as “robustly activates”.

With `N[C@@H](CO)C(=O)O` [Ser, serine], in assay [1], the “shift of T1R1+3 dose response” value is “at least one order of magnitude to the left” and the “activation of T1R1+3” value is given as “activating”.

Take `N[C@@H](Cc1c[nH]c2ccccc12)C(=O)O` [Trp]: the “activation of T1R1+3” value in assay [1] is “no responses”.

In turn, `CC1=CC(=O)[N-]S(=O)(=O)O1.[K+]` [acesulfame-K] registered an in vivo threshold in assay [3] of roughly 0.5 mM.

For the compound `NC(=O)CC[C@H](N)C(=O)O` [glutamine], in assay [1], the “activation of T1R1+3” value is “activating”.

With `O=C1NS(=O)(=O)c2ccccc21` [saccharin], the in vivo threshold in assay [3] is reported as roughly 0.5 mM.

In assay [3], `OC[C@H]1O[C@@](CO)(O[C@H]2O[C@H](CO)[C@@H](O)[C@H](O)[C@H]2O)[C@@H](O)[C@@H]1O` [sucrose] returned an in vivo threshold of roughly 20 mM.

As for `C[C@@H](O)[C@H](N)C(=O)O` [threonine], the “activation of T1R1+3” value in assay [1] was “activating”.

For the origin of these results see patent US8470970B2, “Mammalian sweet and amino acid heterodimeric taste receptors comprising T1R3 and T1R1” (The Regents of the University of California, priority 2001, dated 2013).
